In patent publication US20150182431A1, “Compositions and Methods for Treatment of Hair with Reduced Hair Damage” (SYTHEON LTD, priority 2013, published 2015):

Conditions: for Fluorescence decay of fluorescein (FL), in words: 200 μM each, CuCl2 230 μM, CaCl2 2.3 mM
Procedure: The study was conducted in accordance with the methodology disclosed in “Novel Fluorometric Assay for Hydroxyl Radical Prevention Capacity Using Fluorescein as the Probe”, B Ou, M Hampsch-Woodill, J Flanagan, EK Deemer, R Prior, D Huang, J. Agric, Food Chem: 50(10); 2772-2777, 2002.
The Fenton reaction was initiated with the mixture of Cu^2+, CaCl2 and hydrogen peroxide at alkaline condition. Hydroxyl radicals were generated by the Fenton reagent mixture, oxidative damage was monitored by fluorescein (FL), a fluorescence probe sensitive to hydroxyl radicals. The loss of fluorescence intensity was an index of oxidation. Thus, the slower the fluorescence decay, the stronger the chelation for Cu^2+.

Structure (SMILES) | Chelating ability for copper, in words | Fluorescence decay of fluorescein (FL), in words | Chelation of Cu^2+ preventing the Fenton reaction, in words (equimolar amounts (230 μM) of compound and Cu^2+) | Attraction for calcium, in words (excess Ca^2+)
COc1cc(C=C(C(C)=O)C(C)=O)cc(OC)c1OC [Compd. 1E, 3-(3,4,5-trimethoxybenzylidene) 2,4-pentanedione] | excellent chelating ability for copper | barely noted | almost completely chelated | little attraction for calcium
O=C(O)CC(NCCNC(CC(=O)O)C(=O)O)C(=O)O (stereo not shown) [EDDS, Ethylenediamine-N,N′-disuccinic acid, reference compound] | not an effective chelating agent for copper | barely noted | – | –
O=C(O)CN(CCN(CC(=O)O)CC(=O)O)CC(=O)O [EDTA, Ethylenediamine tetraacetic acid, reference compound] | – | barely noted | – | –
